Values of other authors as cited in patent US20260077140A1, “METERED DOSE INHALER FOR IPRATROPIUM BROMIDE SOLUTION” (Glenmark Pharmaceuticals Limited, priority 2024, published 2026).
Where two headings read alike, the source gives them in different places.

Conditions: aerosol solution in HFA-134(a) and about 35% ethanol, stored at 50° C.

CC(C)[N+]1(C)[C@@H]2CC[C@H]1CC(OC(=O)C(CO)c1ccccc1)C2.[Br-] (some centres unmarked) [ipratropium bromide]
decomposition of the ipratropium bromide: significant decomposition
decomposition of the ipratropium bromide (addition of 1% water): reduced the decomposition due to dehydration
